Consider 25 compounds from patent US8575156B2, “Cyclic inhibitors of 11β-hydroxysteroid dehydrogenase 1” (Vitae Pharmaceuticals, Inc., priority 2007, dated 2013).

For the assay, the target named is 11β-HSD1 (Homo sapiens, UniProt P28845). Kind of assay: biochemical. Conditions: for IC50: IC50 Range, Biological Test Example 1, microsomes from CHO cells overexpressing human 11β-HSD1.
Where [1] appears, read: read-out: Average % inhibition at 111.1 nM, Biological Test Example 1, 111.1 nM compound.
Where [2] appears, read: read-out: Average % inhibition at 111.1 nM.

Where two headings read alike, the source gives them in different places.

The term inhibition denotes the percentage by which the read-out fell short of the control. Broadly, the IC50 is the point on the concentration scale where inhibition reaches its midpoint.

11β-HSD1, sequence (P28845 whole entry): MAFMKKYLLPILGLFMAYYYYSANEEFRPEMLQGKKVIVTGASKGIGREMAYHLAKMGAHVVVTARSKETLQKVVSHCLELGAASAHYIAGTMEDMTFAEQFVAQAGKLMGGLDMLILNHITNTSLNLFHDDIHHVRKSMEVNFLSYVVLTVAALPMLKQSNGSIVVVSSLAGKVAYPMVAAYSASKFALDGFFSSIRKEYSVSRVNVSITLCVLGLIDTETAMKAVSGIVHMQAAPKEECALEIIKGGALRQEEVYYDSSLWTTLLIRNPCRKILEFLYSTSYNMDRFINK

With `CC1(c2ccccc2)CCN(c2cccc(-c3ccncc3)c2)C(=O)O1` (stereo not shown) [EXAMPLE 33, 6-methyl-6-phenyl-3-(3-(pyridin-4-yl)phenyl)-1,3-oxazinan-2-one], the inhibition at 0.1111 µM under setting [1] was found to be 37.1%. For `COc1cccc(-c2cccc(N3CCC(C)(c4ccccc4)OC3=O)c2)c1` (stereo not shown) [EXAMPLE 34, 3-(3′-methoxybiphenyl-3-yl)-6-methyl-6-phenyl-1,3-oxazinan-2-one], the half-maximal inhibitory concentration (IC50) is under 100 nM. Also, the inhibition at 0.1111 µM under setting [1] came to 72%. `CC1(c2ccccc2)CCN(c2cccc(-c3ccccc3CO)c2)C(=O)O1` (stereo not shown) [EXAMPLE 35, 3-(2′-(hydroxymethyl)biphenyl-3-yl)-6-methyl-6-phenyl-1,3-oxazinan-2-one] gave a 50% inhibitory concentration (IC50) of 100 to 1000 nM. Under setting [1], the inhibition at 0.1111 µM turned out to be 26.7%. Compound `CC1(c2ccccc2)CCN(c2cccc(-c3cccs3)c2)C(=O)O1` (stereo not shown) [EXAMPLE 36, 6-methyl-6-phenyl-3-(3-(thiophen-2-yl)phenyl)-1,3-oxazinan-2-one] registered an IC50 of under 100 nM. Further, under setting [1], the inhibition at 0.1111 µM came out at 63.3%. In the same order, the values of `COC(=O)c1cccc(-c2cccc(N3CCC(C)(c4ccccc4)OC3=O)c2)c1` (stereo not shown) [EXAMPLE 38, methyl 3′-(6-methyl-2-oxo-6-phenyl-1,3-oxazinan-3-yl)biphenyl-3-carboxylate] are 100 to 1000 nM and 17.8%. For `CC1(c2ccccc2)CCN(c2cccc(-c3cccc(CO)c3)c2)C(=O)O1` (stereo not shown) [EXAMPLE 39, 3-(3′-(hydroxymethyl)biphenyl-3-yl)-6-methyl-6-phenyl-1,3-oxazinan-2-one], the half-maximal inhibitory concentration (IC50) was in the range of 100 to 1000 nM. The inhibition at 0.1111 µM under setting [1] stood at 24.8%. In the same order, the values of `CC1(c2ccccc2)CCN(c2cccc(-c3cccc(S(C)(=O)=O)c3)c2)C(=O)O1` (stereo not shown) [EXAMPLE 40, 6-methyl-3-(3′-(methylsulfonyl)biphenyl-3-yl)-6-phenyl-1,3-oxazinan-2-one] are 100 to 1000 nM and 28.8%. For `CC(=O)NCc1cccc(-c2cccc(N3CCC(C)(c4ccccc4)OC3=O)c2)c1` (stereo not shown) [EXAMPLE 41, N-((3′-(6-methyl-2-oxo-6-phenyl-1,3-oxazinan-3-yl)biphenyl-3-yl)methyl)acetamide], in that order: 100 to 1000 nM and 19.9%. `CN(C)C(=O)c1ccc(-c2cccc(N3CCC(C)(c4ccccc4)OC3=O)c2)cc1` (stereo not shown) [EXAMPLE 42, N,N-dimethyl-3′-(6-methyl-2-oxo-6-phenyl-1,3-oxazinan-3-yl)biphenyl-4-carboxamide] came in with a half-inhibitory concentration (IC50) of 100 to 1000 nM. In addition, the inhibition at 0.1111 µM under setting [1] came to 36.7%. `CC1(c2ccccc2)CCN(c2cccc(-c3ccc(O)cc3)c2)C(=O)O1` (stereo not shown) [EXAMPLE 43, 3-(4′-hydroxybiphenyl-3-yl)-6-methyl-6-phenyl-1,3-oxazinan-2-one] gave an IC50 of under 100 nM. Besides, the inhibition at 0.1111 µM under setting [1] worked out at 77.7%. For `CC1(c2ccccc2)CCN(c2cccc(-c3ccc(C(N)=O)cc3)c2)C(=O)O1` (stereo not shown) [EXAMPLE 44, 3′-(6-methyl-2-oxo-6-phenyl-1,3-oxazinan-3-yl)biphenyl-4-carboxamide], in that order: 100 to 1000 nM and 35%. In the case of `CC1(c2ccccc2)CCN(c2cccc(-c3ccccc3NS(C)(=O)=O)c2)C(=O)O1` (stereo not shown) [EXAMPLE 45, N-(3′-(6-methyl-2-oxo-6-phenyl-1,3-oxazinan-3-yl)biphenyl-2-yl)methanesulfonamide], the 50% inhibitory concentration (IC50) was in the range of 100 to 1000 nM. Besides, under setting [1], the inhibition at 0.1111 µM was found to be 31.2%. `COC(=O)c1ccc(-c2cccc(N3CCC(C)(c4ccccc4)OC3=O)c2)cc1` (stereo not shown) [EXAMPLE 46, methyl 3′-(6-methyl-2-oxo-6-phenyl-1,3-oxazinan-3-yl)biphenyl-4-carboxylate] registered an IC50 of 100 to 1000 nM. Under setting [1], the inhibition at 0.1111 µM was 46.4%. The compound `CNS(=O)(=O)c1ccc(-c2cccc(N3CCC(C)(c4ccccc4)OC3=O)c2)cc1` (stereo not shown) [EXAMPLE 47, N-methyl-3′-(6-methyl-2-oxo-6-phenyl-1,3-oxazinan-3-yl)biphenyl-4-sulfonamide] came in with an IC50 of 100 to 1000 nM. Also, the inhibition at 0.1111 µM under setting [1] came out at 36.3%.

In turn, `CC1(c2ccccc2)CCN(c2cccc(-c3ccc(CO)cc3)c2)C(=O)O1` (stereo not shown) [EXAMPLE 48, 3-(4′-(hydroxymethyl)biphenyl-3-yl)-6-methyl-6-phenyl-1,3-oxazinan-2-one] registered a half-inhibitory concentration (IC50) of 100 to 1000 nM. The inhibition at 0.1111 µM under setting [1] was determined as 37%. In the case of `CC1(c2ccccc2)CCN(c2cccc(-c3cccc(-c4nnn[nH]4)c3)c2)C(=O)O1` (stereo not shown) [EXAMPLE 49, 3-(3′-(1H-tetrazol-5-yl)biphenyl-3-yl)-6-methyl-6-phenyl-1,3-oxazinan-2-one], the half-maximal inhibitory concentration (IC50) lay within 100 to 1000 nM. Also, the inhibition at 0.1111 µM under setting [1] turned out to be 15.4%. For `O=C1OC(CCO)(c2ccccc2F)CCN1c1cccc(-c2ccc(F)cc2Cl)n1` (stereo not shown) [EXAMPLE 50, 3-(6-(2-chloro-4-fluorophenyl)pyridin-2-yl)-6-(2-fluorophenyl)-6-(2-hydroxyethyl)-1,3-oxazinan-2-one], in that order: under 100 nM and 96.3%. `C[C@@H](c1ccc(-c2ccc(F)cc2F)cc1)N1CC[C@](CC(O)CO)(c2ccc(F)cc2)OC1=O` (stereo partly drawn) [EXAMPLE 52, (6S)-3-((S)-1-(2′,4′-difluorobiphenyl-4-yl)ethyl)-6-(2,3-dihydroxypropyl)-6-(4-fluorophenyl)-1,3-oxazinan-2-one] displayed a half-inhibitory concentration (IC50) of under 100 nM. In addition, the inhibition at 0.1 µM (read-out: Average % inhibition at 100 nM, Biological Test Example 1, 100 nM compound) came out at 98.6%. Compound `CC1(c2cccc(Cl)c2)CCN(c2cccc(N3CCCCC3)n2)C(=O)O1` (stereo not shown) [EXAMPLE 53, 6-(3-chlorophenyl)-6-methyl-3-(6-(piperidin-1-yl)pyridin-2-yl)-1,3-oxazinan-2-one] came in with an IC50 of under 100 nM. Besides, the inhibition at 0.1111 µM under setting [2] was determined as 57.1%. As for `CC1(c2ccccc2)CCN(c2ccnc(-c3ccc(F)cc3)n2)C(=O)O1` (stereo not shown) [EXAMPLE 55, 3-(2-(4-fluorophenyl)pyrimidin-4-yl)-6-methyl-6-phenyl-1,3-oxazinan-2-one], the IC50 fell in the range of 100 to 1000 nM. Moreover, the inhibition at 0.1111 µM under setting [2] is 3.7%.

In turn, `CC1(c2ccccc2)CCN(c2ccnc(-c3cccc(F)c3)n2)C(=O)O1` (stereo not shown) [EXAMPLE 56, 3-(2-(3-fluorophenyl)pyrimidin-4-yl)-6-methyl-6-phenyl-1,3-oxazinan-2-one] gave an IC50 of 100 to 1000 nM. Further, the inhibition at 0.1111 µM under setting [2] stood at 5.6%. For `CC1(c2ccccc2)CCN(c2nccc(Cl)n2)C(=O)O1` (stereo not shown) [EXAMPLE 57, 3-(4-chloropyrimidin-2-yl)-6-methyl-6-phenyl-1,3-oxazinan-2-one], in that order: 100 to 1000 nM and 10.4%.

`CC1(c2ccccc2)CCN(c2nccc(-c3cccc(Cl)c3)n2)C(=O)O1` (stereo not shown) [EXAMPLE 58, 3-(4-(3-chlorophenyl)pyrimidin-2-yl)-6-methyl-6-phenyl-1,3-oxazinan-2-one] registered an IC50 of 100 to 1000 nM. For the same compound, the inhibition at 0.1111 µM under setting [1] is 34.8%. For `CC1(c2ccccc2)CCN(c2nccc(-c3ccc(F)cc3F)n2)C(=O)O1` (stereo not shown) [EXAMPLE 59, 3-(4-(2,4-difluorophenyl)pyrimidin-2-yl)-6-methyl-6-phenyl-1,3-oxazinan-2-one], in that order: 100 to 1000 nM and 18%. Compound `CC1(c2ccccc2)CCN(c2nccc(-c3c(Cl)cccc3Cl)n2)C(=O)O1` (stereo not shown) [EXAMPLE 60, 3-(4-(2,6-dichlorophenyl)pyrimidin-2-yl)-6-methyl-6-phenyl-1,3-oxazinan-2-one] came in with a half-maximal inhibitory concentration (IC50) of 100 to 1000 nM. Moreover, the inhibition at 0.1111 µM under setting [1] worked out at 51.3%.
